Data from patent US9096601B2 (CSPC Zhongqi Pharmaceutical Technology (Shijiazhuang) Co., …, priority 2010, dated 2015).

Columns and labels:
EGFR L858R mutant type = EGFR L858R mutant type (Homo sapiens (Human), UniProt P00533, L858R); test: Kinase inhibitory activity, isotopic labeling (γ-33P-ATP); assay type: biochemical; conditions: ATP 200 μM (Km)
Procedure: (§1) The object of this assay was to test the inventive compounds for the kinase inhibitory activity in vitro. In this assay, an isotopic labeling method was used to label the γ phosphate group on ATP. […] Staurosporine was used as a reference molecule (or referred to as a positive control). […] The IC50 value can be obtained by the calculation of the inhibitory rates at a series of different concentrations of the tested compounds.
(§2) To a reaction tube were successively added the buffer solution (8 mM MOPS, pH 7.0, 0.2 mM EDTA, 10 mM MnCl2), the kinase to be tested (5-10 mU) (EGFR/ALK/BTK/c-KIT/c-SRC/MET/PDGFRα/VEGFR2), the substrate for the kinase to be tested (a reference material), 10 mM of the solution of magnesium acetate and γ-^33 P-ATP, and different concentrations of the tested compounds. […] The reaction was terminated with […] of the 3% phosphate buffer solution. 10 μL of the reaction liquid was titrated on the Filtermat A membrane. The membrane was washed with 75 mM of the phosphate solution thrice (5 minutes each time), and then with methanol once, and finally dried. The membrane was subjected to a scintillation counting. The value of the scintillation counting reflected the phosphorylation level of the substrate and therefore could characterize the inhibition of the kinase activity.

[1] = molecular target: EGFR L858R/T790M double mutant type (Homo sapiens (Human), UniProt P00533, L858R/T790M); test: as above; assay type: biochemical; conditions: ATP 45 μM (Km)
Procedure: as §1, §2

EGFR wild type = EGFR wild type (Homo sapiens (Human), UniProt P00533); test: as above; assay type: biochemical; conditions: ATP 10 μM (Km)
Procedure: as §1, §2

PDGFRα = PDGFRα (Homo sapiens (Human), UniProt P16234); test: as above; assay type: biochemical; conditions: compound at 10 μM
Procedure: (§3) The object of this assay was to test the inventive compounds for the kinase inhibitory activity in vitro. In this assay, an isotopic labeling method was used to label the γ phosphate group on ATP. EGFR (including wild type, L858R mutant type and L858R/T790M double mutant type), VEGFR2, ALK, BTK, c-KIT, c-SRC, MET, PDGFRα and FLT3 kinases were tested in vitro for the activity inhibition. Staurosporine was used as a reference molecule (or referred to as a positive control). […] The IC50 value can be obtained by the calculation of the inhibitory rates at a series of different concentrations of the tested compounds.
as §2

MET = MET (Homo sapiens (Human), UniProt P08581); test: as above; assay type: biochemical; conditions: compound at 10 μM
Procedure: as §3, §2

BTK = BTK (Homo sapiens (Human), UniProt Q06187); test: as above; assay type: biochemical; conditions: compound at 10 μM
Procedure: as §3, §2

FLT3 = FLT3 (Homo sapiens (Human), UniProt P36888); test: as above; assay type: biochemical; conditions: compound at 10 μM
FLT3, sequence (P36888 27-993): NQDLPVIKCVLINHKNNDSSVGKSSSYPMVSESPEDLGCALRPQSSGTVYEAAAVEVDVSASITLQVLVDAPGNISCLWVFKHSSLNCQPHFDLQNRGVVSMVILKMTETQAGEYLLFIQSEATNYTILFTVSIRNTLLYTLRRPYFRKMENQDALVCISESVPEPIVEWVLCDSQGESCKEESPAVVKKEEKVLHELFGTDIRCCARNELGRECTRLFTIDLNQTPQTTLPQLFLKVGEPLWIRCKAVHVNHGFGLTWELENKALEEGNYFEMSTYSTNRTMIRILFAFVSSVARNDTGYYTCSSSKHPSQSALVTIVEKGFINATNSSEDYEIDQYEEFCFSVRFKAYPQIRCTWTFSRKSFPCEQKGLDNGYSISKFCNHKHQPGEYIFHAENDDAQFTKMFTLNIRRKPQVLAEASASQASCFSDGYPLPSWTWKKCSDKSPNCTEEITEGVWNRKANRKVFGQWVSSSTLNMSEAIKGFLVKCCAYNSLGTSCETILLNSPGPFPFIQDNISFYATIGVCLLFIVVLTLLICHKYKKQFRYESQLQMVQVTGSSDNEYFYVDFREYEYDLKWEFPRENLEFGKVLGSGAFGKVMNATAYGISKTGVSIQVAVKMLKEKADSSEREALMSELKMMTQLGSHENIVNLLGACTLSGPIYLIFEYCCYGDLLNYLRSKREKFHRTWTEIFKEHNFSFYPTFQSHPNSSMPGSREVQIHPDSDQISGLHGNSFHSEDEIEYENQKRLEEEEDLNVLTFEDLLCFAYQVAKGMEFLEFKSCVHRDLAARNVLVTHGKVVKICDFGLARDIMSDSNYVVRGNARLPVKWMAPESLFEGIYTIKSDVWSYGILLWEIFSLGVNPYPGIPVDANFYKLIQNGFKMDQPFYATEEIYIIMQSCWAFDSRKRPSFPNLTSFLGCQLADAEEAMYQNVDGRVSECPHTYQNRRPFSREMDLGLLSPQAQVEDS
Procedure: as §3, §2

c-KIT = c-KIT (Homo sapiens (Human), UniProt P10721); test: as above; assay type: biochemical; conditions: compound at 10 μM
Procedure: as §3, §2

c-SRC = c-SRC (Homo sapiens (Human), UniProt P12931); test: as above; assay type: biochemical; conditions: compound at 10 μM
Procedure: as §3, §2

ALK = ALK (Homo sapiens (Human), UniProt Q9UM73); test: as above; assay type: biochemical; conditions: compound at 10 μM
ALK, sequence (Q9UM73 19-1620): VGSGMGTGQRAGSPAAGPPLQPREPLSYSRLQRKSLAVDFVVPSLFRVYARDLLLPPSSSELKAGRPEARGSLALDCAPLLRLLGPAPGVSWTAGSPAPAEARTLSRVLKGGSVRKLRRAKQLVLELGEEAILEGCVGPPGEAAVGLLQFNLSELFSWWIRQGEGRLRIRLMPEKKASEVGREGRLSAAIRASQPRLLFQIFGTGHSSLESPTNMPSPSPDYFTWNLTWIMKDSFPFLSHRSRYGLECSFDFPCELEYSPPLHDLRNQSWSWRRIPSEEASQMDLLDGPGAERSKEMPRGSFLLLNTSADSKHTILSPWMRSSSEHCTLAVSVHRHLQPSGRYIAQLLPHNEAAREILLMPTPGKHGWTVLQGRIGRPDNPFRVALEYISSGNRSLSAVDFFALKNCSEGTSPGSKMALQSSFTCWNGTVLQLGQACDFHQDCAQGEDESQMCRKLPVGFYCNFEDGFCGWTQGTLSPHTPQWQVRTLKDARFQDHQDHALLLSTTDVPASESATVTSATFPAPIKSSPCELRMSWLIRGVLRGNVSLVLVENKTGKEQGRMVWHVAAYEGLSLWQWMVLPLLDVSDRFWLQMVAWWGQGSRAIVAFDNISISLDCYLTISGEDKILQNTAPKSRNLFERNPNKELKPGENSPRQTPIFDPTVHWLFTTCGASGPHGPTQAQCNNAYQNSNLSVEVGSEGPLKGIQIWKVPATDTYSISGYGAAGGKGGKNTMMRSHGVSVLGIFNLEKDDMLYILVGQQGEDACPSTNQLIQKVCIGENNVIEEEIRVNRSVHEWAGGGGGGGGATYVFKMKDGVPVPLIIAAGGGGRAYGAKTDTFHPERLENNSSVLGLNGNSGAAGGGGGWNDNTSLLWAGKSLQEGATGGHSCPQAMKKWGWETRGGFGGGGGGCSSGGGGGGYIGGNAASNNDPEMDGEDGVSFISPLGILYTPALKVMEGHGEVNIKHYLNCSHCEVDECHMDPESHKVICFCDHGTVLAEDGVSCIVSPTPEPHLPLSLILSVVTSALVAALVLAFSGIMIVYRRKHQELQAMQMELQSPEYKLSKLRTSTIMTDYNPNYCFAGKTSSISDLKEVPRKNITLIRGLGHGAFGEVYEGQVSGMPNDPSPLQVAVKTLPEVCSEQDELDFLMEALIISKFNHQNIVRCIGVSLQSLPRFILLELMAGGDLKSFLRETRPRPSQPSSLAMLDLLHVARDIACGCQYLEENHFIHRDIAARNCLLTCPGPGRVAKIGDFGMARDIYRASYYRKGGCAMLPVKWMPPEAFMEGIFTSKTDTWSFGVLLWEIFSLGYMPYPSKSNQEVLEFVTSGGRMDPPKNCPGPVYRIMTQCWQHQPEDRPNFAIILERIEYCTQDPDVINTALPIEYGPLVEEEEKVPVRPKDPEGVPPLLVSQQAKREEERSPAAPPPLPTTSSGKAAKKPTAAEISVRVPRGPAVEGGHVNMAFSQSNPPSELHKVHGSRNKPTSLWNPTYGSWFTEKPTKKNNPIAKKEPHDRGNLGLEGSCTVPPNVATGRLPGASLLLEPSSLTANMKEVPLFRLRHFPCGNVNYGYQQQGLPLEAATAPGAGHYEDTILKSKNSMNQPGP
Procedure: as §3, §2

VEGFR2 = VEGFR2 (Homo sapiens (Human), UniProt P35968); test: as above; assay type: biochemical; conditions: ATP 90 μM (Km)
VEGFR2, sequence (P35968 20-1356): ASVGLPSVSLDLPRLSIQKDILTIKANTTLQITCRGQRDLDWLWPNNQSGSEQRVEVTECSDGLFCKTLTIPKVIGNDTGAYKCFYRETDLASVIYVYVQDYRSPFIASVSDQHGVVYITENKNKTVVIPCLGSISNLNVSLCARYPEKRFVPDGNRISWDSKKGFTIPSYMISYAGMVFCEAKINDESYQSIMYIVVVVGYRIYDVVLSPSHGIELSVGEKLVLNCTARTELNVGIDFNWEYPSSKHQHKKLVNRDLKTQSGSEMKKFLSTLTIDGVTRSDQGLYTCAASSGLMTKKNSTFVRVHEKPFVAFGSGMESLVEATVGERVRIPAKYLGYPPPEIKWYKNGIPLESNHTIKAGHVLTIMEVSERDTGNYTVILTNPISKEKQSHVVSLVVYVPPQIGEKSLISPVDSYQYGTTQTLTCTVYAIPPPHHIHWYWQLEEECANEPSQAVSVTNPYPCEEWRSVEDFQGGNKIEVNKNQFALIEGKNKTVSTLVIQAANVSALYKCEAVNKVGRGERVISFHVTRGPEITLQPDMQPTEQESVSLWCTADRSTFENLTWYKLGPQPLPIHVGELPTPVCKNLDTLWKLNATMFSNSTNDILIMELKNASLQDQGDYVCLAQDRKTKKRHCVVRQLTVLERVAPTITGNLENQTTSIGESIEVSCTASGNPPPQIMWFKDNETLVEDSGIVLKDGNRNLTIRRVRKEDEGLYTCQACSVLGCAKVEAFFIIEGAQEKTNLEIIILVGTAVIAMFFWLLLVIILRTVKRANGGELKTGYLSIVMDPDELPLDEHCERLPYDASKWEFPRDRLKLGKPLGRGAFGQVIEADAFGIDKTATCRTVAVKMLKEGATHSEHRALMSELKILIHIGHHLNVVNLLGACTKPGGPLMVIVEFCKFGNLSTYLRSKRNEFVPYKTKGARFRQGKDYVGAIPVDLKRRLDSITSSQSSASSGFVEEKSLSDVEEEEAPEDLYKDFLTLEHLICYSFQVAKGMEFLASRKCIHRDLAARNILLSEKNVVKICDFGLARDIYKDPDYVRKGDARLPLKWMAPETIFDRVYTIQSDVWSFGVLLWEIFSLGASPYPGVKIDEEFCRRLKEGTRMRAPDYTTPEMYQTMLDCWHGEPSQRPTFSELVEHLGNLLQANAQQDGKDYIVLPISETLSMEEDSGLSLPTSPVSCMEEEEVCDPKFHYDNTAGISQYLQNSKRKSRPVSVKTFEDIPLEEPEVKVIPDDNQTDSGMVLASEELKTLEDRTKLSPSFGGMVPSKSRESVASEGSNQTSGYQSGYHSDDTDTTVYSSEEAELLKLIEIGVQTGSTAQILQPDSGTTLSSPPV
Procedure: as §3, §2

[2] = test system: non-small cell lung carcinoma cell strain H292 (EGFR WT); test: In-vitro tumor cell proliferation inhibition, MTT; assay type: cell-based, human; conditions: 72 hours
[3] = test system: non-small cell lung carcinoma cell strain PC-9 (EGFR delE746-A750 deletion mutation); test: In-vitro tumor cell proliferation inhibition, MTT; assay type: cell-based, human; conditions: 72 hours
[4] = test system: non-small cell lung carcinoma cell strain H1975 (EGFR L858R/T790M mutation); test: In-vitro tumor cell proliferation inhibition, MTT; assay type: cell-based, human; conditions: 72 hours
[5] = test system: non-small cell lung carcinoma cell strain HCC827; test: In-vitro tumor cell proliferation inhibition, MTT; assay type: cell-based, human; conditions: 72 hours
In short: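 Cells grown in RPMI-1640 with 10% FBS, seeded overnight (HCC827 at 6×10^4 cells/ml), then exposed to graded compound concentrations for 72 h at 37 °C, 5% CO2, with 1% DMSO solvent control. MTT absorbance at 570 nm; inhibition relative to control; triplicate wells, ≥3 repeats.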

EGFR L858R mutant type, sequence (P00533 25-1210 L858R): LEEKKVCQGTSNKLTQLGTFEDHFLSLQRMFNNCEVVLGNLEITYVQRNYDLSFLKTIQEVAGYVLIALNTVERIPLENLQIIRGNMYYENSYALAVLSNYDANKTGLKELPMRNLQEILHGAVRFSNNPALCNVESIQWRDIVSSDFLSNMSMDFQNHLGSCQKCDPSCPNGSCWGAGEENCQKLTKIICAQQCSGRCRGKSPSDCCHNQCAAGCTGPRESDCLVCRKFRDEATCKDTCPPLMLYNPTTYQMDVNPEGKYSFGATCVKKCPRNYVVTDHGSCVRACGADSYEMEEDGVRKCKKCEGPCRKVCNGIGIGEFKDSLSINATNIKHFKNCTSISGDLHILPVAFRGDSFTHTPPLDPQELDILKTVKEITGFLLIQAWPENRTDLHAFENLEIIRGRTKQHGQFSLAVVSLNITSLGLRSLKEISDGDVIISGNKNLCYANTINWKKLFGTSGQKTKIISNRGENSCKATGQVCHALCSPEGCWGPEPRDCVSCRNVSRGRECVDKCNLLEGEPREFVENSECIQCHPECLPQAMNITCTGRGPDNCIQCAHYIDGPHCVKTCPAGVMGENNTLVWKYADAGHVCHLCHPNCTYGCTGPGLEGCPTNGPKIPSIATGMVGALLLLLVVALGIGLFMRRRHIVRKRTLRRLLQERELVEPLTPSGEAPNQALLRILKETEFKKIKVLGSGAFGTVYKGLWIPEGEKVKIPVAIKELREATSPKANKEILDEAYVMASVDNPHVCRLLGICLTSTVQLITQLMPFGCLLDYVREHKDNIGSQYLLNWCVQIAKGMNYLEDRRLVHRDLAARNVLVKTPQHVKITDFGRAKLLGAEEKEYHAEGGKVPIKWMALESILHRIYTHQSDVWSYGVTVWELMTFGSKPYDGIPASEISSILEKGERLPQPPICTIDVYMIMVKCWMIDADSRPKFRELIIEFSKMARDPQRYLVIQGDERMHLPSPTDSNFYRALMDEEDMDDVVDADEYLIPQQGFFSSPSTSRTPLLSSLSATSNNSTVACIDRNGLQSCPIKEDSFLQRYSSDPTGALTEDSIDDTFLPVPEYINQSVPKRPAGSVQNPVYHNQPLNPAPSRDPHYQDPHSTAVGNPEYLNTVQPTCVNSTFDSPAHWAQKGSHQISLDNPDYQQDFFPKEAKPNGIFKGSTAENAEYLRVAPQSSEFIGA

Row | SMILES | IC50 (EGFR L858R mutant type) [µM] | IC50 [1] [µM] | IC50 (EGFR wild type) [µM] | The kinase activity inhibitory rate (%) by the tested compounds at 10 μM PDGFRα (PDGFRα) [%] | The kinase activity inhibitory rate (%) by the tested compounds at 10 μM MET (MET) [%] | The kinase activity inhibitory rate (%) by the tested compounds at 10 μM BTK (BTK) [%] | The kinase activity inhibitory rate (%) by the tested compounds at 10 μM FLT3 (FLT3) [%] | The kinase activity inhibitory rate (%) by the tested compounds at 10 μM c-KIT (c-KIT) [%] | The kinase activity inhibitory rate (%) by the tested compounds at 10 μM c-SRC (c-SRC) [%] | The kinase activity inhibitory rate (%) by the tested compounds at 10 μM ALK (ALK) [%] | IC50 (VEGFR2) [nM] | IC50 [2] [nM] | IC50 [3] [nM] | IC50 [4] [nM] | IC50 [5] [nM]
1 | CN1CCN(c2ccc(Nc3ncc4nc(Nc5ccccc5)[nH]c4n3)cc2)CC1 [Compounds 8-25] | 0.005 | 0.458 | 0.029 | 21 | 0 | 45 | 32 | 8 | 78 | 13 | > 1000 | 1650 | 258 | > 10000 | 52.8
2 | CC(C)n1c(Nc2cccnc2)nc2cnc(Nc3ccc(N4CCN(C)CC4)cc3)nc21 [Compounds 8-29] | 0.004 | 0.064 | 0.031 | 42 | 50 | 60 | 99 | 36 | 97 | 15 | > 1000 | 180 | 10 | > 10000 | 7.2
3 | C=CC(=O)Nc1cccc(Nc2ncc3nc(Nc4ccccc4)n(C(C)C)c3n2)c1 [Compounds 8-38] | 0.0006 | 0.037 | 0.002 | 55 | 74 | 93 | 86 | 63 | 93 | 22 | > 1000 | 7.3 | 0.7 | 644 | 0.5
4 | CC(C)n1c(Nc2ccc(F)c(Cl)c2)nc2cnc(Nc3ccc(N4CCN(C)CC4)cc3)nc21 [Compounds 8-13] | 0.003 | 0.009 | 0.004 | 90 | 100 | 45 | 89 | 87 | 31 | 78 | > 1000 | 6.1 | 0.3 | 2000 | 0.2
5 | CC(C)n1c(Nc2ccccc2)nc2cnc(Nc3ccc(N4CCN(C)CC4)cc3)nc21 [Compounds 8-10] | 0.005 | 0.046 | 0.005 | 87 | 64 | 32 | 87 | 3 | 23 | 45 | > 1000 | 10.5 | 0.9 | 2000 | 0.1
6 | CC(C)n1c(NC2CCCCC2)nc2cnc(Nc3ccc(N4CCN(C)CC4)cc3)nc21 [Compounds 8-30] | 0.005 | 0.228 | 0.015 | 21 | 0 | 25 | 43 | 0 | 67 | 8 | > 1000 | 201 | 55.1 | > 10000 | 483
7 | CC(C)n1c(Nc2ccc(Br)cc2)nc2cnc(Nc3ccc(N4CCN(C)CC4)cc3)nc21 [Compounds 8-15] | 0.001 | 0.015 | 0.003 | 94 | 45 | 95 | 90 | 94 | 97 | 40 | 4 | 220 | 6.4 | > 10000 | 0.2
8 | CC(C)n1c(Nc2ccc(C(=O)Nc3cccc(F)c3)cc2)nc2cnc(Nc3ccc(N4CCN(C)CC4)cc3)nc21 [Compounds 8-22] | 0.01 | 0.087 | 0.117 | 43 | 69 | 63 | 87 | 10 | 98 | 70 | > 1000 | 1730 | 2790 | > 10000 | > 1000
